Measurements published in ChEMBL document CHEMBL1138518 (J Med Chem, 2009).

Columns and labels:
[1] = Dissociation constant, pKa of the compound; format: physicochemical
[2] = target: Heat shock protein HSP 90-beta (Homo sapiens, UniProt P08238); experiment: Binding affinity to human recombinant HSP90
SK-BR-3 = experiment: Cytotoxicity against human SKBR3 cells after 72 hrs by celltiter-glo assay; format: functional, cell-based; conditions: Homo sapiens, SK-BR-3, 72 h
[3] = Chemical stability assessed as half life at pH 7.75; format: physicochemical; conditions: buffer

Chain of Heat shock protein HSP 90-beta (P08238 whole entry): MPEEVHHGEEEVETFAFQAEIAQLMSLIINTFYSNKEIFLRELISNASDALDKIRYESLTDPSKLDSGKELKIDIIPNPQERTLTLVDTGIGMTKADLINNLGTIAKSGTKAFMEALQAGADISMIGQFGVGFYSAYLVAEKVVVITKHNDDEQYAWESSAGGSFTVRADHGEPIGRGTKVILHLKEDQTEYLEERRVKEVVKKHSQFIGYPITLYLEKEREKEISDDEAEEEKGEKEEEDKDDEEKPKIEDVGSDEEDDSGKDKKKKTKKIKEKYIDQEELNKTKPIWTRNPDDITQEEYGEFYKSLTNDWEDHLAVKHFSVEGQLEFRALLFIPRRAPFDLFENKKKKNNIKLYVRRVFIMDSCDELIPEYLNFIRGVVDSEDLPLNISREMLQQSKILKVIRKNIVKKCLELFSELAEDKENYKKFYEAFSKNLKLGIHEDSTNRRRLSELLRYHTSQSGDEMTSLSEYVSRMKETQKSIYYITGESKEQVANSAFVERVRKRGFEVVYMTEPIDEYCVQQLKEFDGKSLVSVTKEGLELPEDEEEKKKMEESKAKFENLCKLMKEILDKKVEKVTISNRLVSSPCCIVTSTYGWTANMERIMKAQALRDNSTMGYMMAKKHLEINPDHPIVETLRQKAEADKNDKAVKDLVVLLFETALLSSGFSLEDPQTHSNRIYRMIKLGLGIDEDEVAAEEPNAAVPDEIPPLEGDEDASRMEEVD

SMILES	pKa [1]	Kd [2] [µM]	IC50 (SK-BR-3) [nM]	half-life [3] [days]
CO[C@H]1/C=C\C=C(/C)C(=O)NC2=CC(=O)C(NCCN(C)C)=C(C[C@@H](C)C[C@H](OC)[C@H](NCCN(C)C)[C@@H](C)/C=C(\C)[C@@H]1OC(N)=O)C2=O (stereo in doubt)	6	> 50	460	–
COC1=C2C[C@@H](C)C[C@H](OC)[C@H](OC(=O)CN)[C@@H](C)/C=C(\C)[C@H](OC(N)=O)[C@@H](OC)/C=C\C=C(/C)C(=O)NC(=CC1=O)C2=O (stereo in doubt)	–	> 25	480	3.96
CO[C@H]1/C=C\C=C(/C)C(=O)NC2=CC(=O)C(NCCN(C)C)=C(C[C@@H](C)C[C@H](OC)[C@H](NCCF)[C@@H](C)/C=C(\C)[C@@H]1OC(N)=O)C2=O (stereo in doubt)	9	> 50	390	–
C=CCNC1=C2C[C@@H](C)C[C@H](OC)[C@H](OC(=O)CCN)[C@@H](C)/C=C(\C)[C@H](OC(N)=O)[C@@H](OC)/C=C\C=C(/C)C(=O)NC(=CC1=O)C2=O (stereo in doubt)	–	> 25	1800	5.42
CO[C@H]1/C=C\C=C(/C)C(=O)NC2=CC(=O)C(NCCN(C)C)=C(C[C@@H](C)C[C@H](OC)[C@H](NCCC(F)(F)F)[C@@H](C)/C=C(\C)[C@@H]1OC(N)=O)C2=O (stereo in doubt)	8.9	> 10	830	–
CO[C@H]1/C=C\C=C(/C)C(=O)NC2=CC(=O)C(NCCN(C)C)=C(C[C@@H](C)C[C@H](OC)[C@H](N)[C@@H](C)/C=C(\C)[C@@H]1OC(N)=O)C2=O (stereo in doubt)	9.2	> 25	415	–
COC1=C2C[C@@H](C)C[C@H](OC)[C@H](OC(=O)CCCN)[C@@H](C)/C=C(\C)[C@H](OC(N)=O)[C@@H](OC)/C=C\C=C(/C)C(=O)NC(=CC1=O)C2=O (stereo in doubt)	–	> 10	> 1000	> 14.6
COC1=C2C[C@@H](C)C[C@H](OC)[C@H](OC(=O)CCN)[C@@H](C)/C=C(\C)[C@H](OC(N)=O)[C@@H](OC)/C=C\C=C(/C)C(=O)NC(=CC1=O)C2=O (stereo in doubt)	–	> 25	1700	8.33
CO[C@H]1/C=C\C=C(/C)C(=O)NC2=CC(=O)C(NCCN(C)C)=C(C[C@@H](C)C[C@H](OC)[C@H](NCC(F)F)[C@@H](C)/C=C(\C)[C@@H]1OC(N)=O)C2=O (stereo in doubt)	7.5	2.9	370	–
CO[C@H]1/C=C\C=C(/C)C(=O)NC2=CC(=O)C(NCCN(C)C)=C(C[C@@H](C)C[C@H](OC)[C@H](NCC(F)(F)F)[C@@H](C)/C=C(\C)[C@@H]1OC(N)=O)C2=O (stereo in doubt)	5.7	4	270	–
